Reference: patent US10350271B2, “Lipidated peptides for lowering blood glucose” (USTAV ORGANICKE CHEMIE A BIOCHEMIE AKADEMIE VED CR, V.V.I., priority 2014, dated 2019)
Square brackets hold non-standard residues; d marks the D form. Ends that are not written are not given here. Peptide text beside a SMILES is read from it. * marks the point of attachment. 1Nal = N[C@@H](Cc1cccc2ccccc12)C(=O)O; Myristoyl = CCCCCCCCCCCCCC(=O)*; NMeA = CN[C@@H](C)C(=O)O; Nle = CCCC[C@H](N)C(=O)O; Sar = CNCC(=O)O

How the values were obtained:
[1] = target: T1, rat PrRP receptor (Rattus norvegicus, UniProt Q64121); experiment: Competitive binding in RC-4B/C rat pituitary cells (125I-rat PrRP31); conditions: affinity relative to PrRP31
T1 construct: host or cells: RC-4B/C rat pituitary cell line
T1 sequence (Q64121 1-370): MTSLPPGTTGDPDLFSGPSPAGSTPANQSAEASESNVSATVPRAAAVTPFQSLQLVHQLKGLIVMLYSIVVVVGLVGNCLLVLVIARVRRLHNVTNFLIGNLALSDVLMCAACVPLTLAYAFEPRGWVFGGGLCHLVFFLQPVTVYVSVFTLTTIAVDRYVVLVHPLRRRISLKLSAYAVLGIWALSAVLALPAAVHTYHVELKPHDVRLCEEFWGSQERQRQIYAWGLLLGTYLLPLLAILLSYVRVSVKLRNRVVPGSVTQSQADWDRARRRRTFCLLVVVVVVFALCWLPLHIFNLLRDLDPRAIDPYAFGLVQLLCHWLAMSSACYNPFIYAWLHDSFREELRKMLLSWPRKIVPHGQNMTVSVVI
Description: (§1) Competitive binding experiments were performed according to Motulsky and Neubig (Motulsky, A., et al., “Analyzing radioligand binding data,” Curr Protoc Neurosci, Chapter 7, Unit 7.5, 2002). Binding experiments were conducted with rat pituitary cells, and with Chinese Hamster Ovary (CHO) cells as follows:
The rat pituitary cell line RC-4B/C (ATCC, Manassas, USA) was grown on 24-well plates which had their bottom coated with polyethyleneimine. The cells were grown to the optimal density of 300-450 thousand cells per well. The following agents were used for the experiment: binding buffer (20 mmol·l^−1 HEPES, Ph 7.4; 118 mmol·l^−1 NaCl, 4.7 mmol·l^−1 KCl, 5 mmol·l^−1 MgCl2, 5.5 mmol·l^−1 glucose, 1 mg/ml BSA, 0.1 BPTI), unlabeled analogs of PrRP (i.e. the analog being tested) at a final concentration between 10^−11 to 10^−4 mol·l^−1, and rat ^125I-PrRP31 (labeled with radioactive Iodine-125) at a final concentration of […] (Maixnerová et al., 2011).
(§2) Plates were incubated for 60 minutes at room temperature. After incubation, the cells were solubilized in 0.1 mol/l solution of NaOH, and the radioactivity bound to the cells was counted using a γ-counter. The experiments were performed in duplicate, and repeated at least three times.
(§3) Graph Pad Prism Software (San Diego, Calif., USA) was used for evaluating the competitive binding experiments. Nonlinear regression was performed using a onsite binding model.

[2] = target: T2, human PrRP receptor GPR10 (Homo sapiens, UniProt P49683); experiment: Competitive binding in CHO cells transfected with human GPR10 (human 125I-PrRP31); conditions: affinity relative to PrRP31
T2 construct: host or cells: CHO cells
T2 sequence (P49683 1-370): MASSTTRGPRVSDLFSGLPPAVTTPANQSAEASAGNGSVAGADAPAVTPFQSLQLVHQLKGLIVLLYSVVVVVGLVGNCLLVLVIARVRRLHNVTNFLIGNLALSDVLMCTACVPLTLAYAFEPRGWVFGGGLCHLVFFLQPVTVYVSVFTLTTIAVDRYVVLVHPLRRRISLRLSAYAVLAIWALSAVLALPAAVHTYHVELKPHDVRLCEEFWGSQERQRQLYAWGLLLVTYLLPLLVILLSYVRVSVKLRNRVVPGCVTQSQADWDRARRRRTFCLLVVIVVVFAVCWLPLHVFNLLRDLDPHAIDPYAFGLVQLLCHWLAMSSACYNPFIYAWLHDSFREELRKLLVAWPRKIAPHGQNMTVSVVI
Description: as §1
CHO cells transfected with human PrRP receptor GPR10 (Perkin Elmer, USA) were grown on 24-well plates coated with polyethyleneimine. The cells were grown to the optimal density of 40-80 thousand cells per well. The following agents were used for the experiment: binding buffer (25 mmol·l^−1 Tris, pH 7.4; 118 mmol·l^−1 NaCl, 10 mmol·l^−1 MgCl2, 10 mmol·l^−1 CaCl2, 5.5 mmol·l^−1 glucose, 0.5 mg/ml BSA), unlabeled analogs of PrRP (i.e. the analog being tested) at a final concentration between 10^−11 to 10^−4 mol·l^−1, and radiolabeled human ^125I-PrRP31 at a final concentration of 5×10^−11 mol·l^−1.
as §2, §3

| Molecule | % of PrRP31, RC-4B/C rat pituitary cells [1] [%] | % of PrRP31, GPR10 human receptor transfected in CHO cells [2] [%] |
| --- | --- | --- |
| CC[C@H](C)[C@H](NC(=O)CN(C)C(=O)[C@H](CCCNC(=N)N)NC(=O)CNC(=O)[C@@H](NC(=O)[C@H](Cc1ccc(O)cc1)NC(=O)[C@H](Cc1c[nH]c2ccccc12)NC(=O)[C@H](C)NC(=O)[C@@H]1CCCN1C(=O)[C@H](CC(N)=O)NC(=O)[C@@H](NC(=O)[C@H](CC(=O)O)NC(=O)[C@@H]1CCCN1C(=O)[C@@H](N)[C@@H](C)O)[C@@H](C)CC)[C@@H](C)O)C(=O)N[C@@H](CCCNC(=N)N)C(=O)N1CCC[C@H]1C(=O)N[C@H](C(=O)NCC(=O)N[C@@H](CCCNC(=N)N)C(=O)N[C@@H](Cc1ccccc1)C(N)=O)C(C)C [Analog 27] (H-TPDINPAWYTGR[Sar]IRPVGRF-NH2) | 62 | 86 |
| CCCC[C@H](NC(=O)[C@H](CO)NC(=O)[C@H](Cc1c[nH]cn1)NC(=O)[C@H](CCC(N)=O)NC(=O)[C@H](Cc1c[nH]cn1)NC(=O)[C@H](C)NC(=O)[C@H](CCCNC(=N)N)NC(=O)[C@@H](N)CO)C(=O)N[C@@H](CCC(=O)O)C(=O)N[C@H](C(=O)N[C@@H](CCCNC(=N)N)C(=O)N[C@H](C(=O)N1CCC[C@H]1C(=O)N[C@@H](CC(=O)O)C(=O)N[C@H](C(=O)N[C@@H](CC(N)=O)C(=O)N1CCC[C@H]1C(=O)N[C@@H](C)C(=O)N[C@@H](Cc1c[nH]c2ccccc12)C(=O)N[C@@H](Cc1ccc(O)cc1)C(=O)N[C@H](C(=O)NCC(=O)N[C@@H](CCCNC(=N)N)C(=O)NCC(=O)N[C@H](C(=O)N[C@@H](CCCNC(=N)N)C(=O)N1CCC[C@H]1C(=O)N[C@H](C(=O)NCC(=O)N[C@@H](CCCNC(=N)N)C(=O)N[C@@H](Cc1cccc2ccccc12)C(N)=O)C(C)C)[C@@H](C)CC)[C@@H](C)O)[C@@H](C)CC)[C@@H](C)O)[C@@H](C)O [Analog 10] (H-SRAHQHS[Nle]ETRTPDINPAWYTGRGIRPVGR[1Nal]-NH2) | 4.8 | 11 |
| CCCCCCCCCCCCCC(=O)N[C@@H](CO)C(=O)N[C@@H](CCCNC(=N)N)C(=O)N[C@@H](C)C(=O)N[C@@H](Cc1c[nH]cn1)C(=O)N[C@@H](CCC(N)=O)C(=O)N[C@@H](Cc1c[nH]cn1)C(=O)N[C@@H](CO)C(=O)N[C@@H](CCCC)C(=O)N[C@@H](CCC(=O)O)C(=O)N[C@H](C(=O)N[C@@H](CCCNC(=N)N)C(=O)N[C@H](C(=O)N1CCC[C@H]1C(=O)N[C@@H](CC(=O)O)C(=O)N[C@H](C(=O)N[C@@H](CC(N)=O)C(=O)N1CCC[C@H]1C(=O)N[C@@H](C)C(=O)N[C@@H](Cc1c[nH]c2ccccc12)C(=O)N[C@@H](Cc1ccc(O)cc1)C(=O)N[C@H](C(=O)NCC(=O)N[C@@H](CCCNC(=N)N)C(=O)NCC(=O)N[C@H](C(=O)N[C@@H](CCCNC(=N)N)C(=O)N1CCC[C@H]1C(=O)N[C@H](C(=O)NCC(=O)N[C@@H](CCCNC(=N)N)C(=O)N[C@@H](Cc1cccc2ccccc12)C(N)=O)C(C)C)[C@@H](C)CC)[C@@H](C)O)[C@@H](C)CC)[C@@H](C)O)[C@@H](C)O [Analog 11] (Myristoyl-SRAHQHS[Nle]ETRTPDINPAWYTGRGIRPVGR[1Nal]-NH2) | 124 | 292 |
| CCCC[C@H](NC(=O)[C@H](CO)NC(=O)[C@H](Cc1c[nH]cn1)NC(=O)[C@H](CCC(N)=O)NC(=O)[C@H](Cc1c[nH]cn1)NC(=O)[C@H](C)NC(=O)[C@H](CCCNC(=N)N)NC(=O)[C@@H](N)CO)C(=O)N[C@@H](CCC(=O)O)C(=O)N[C@H](C(=O)N[C@@H](CCCNC(=N)N)C(=O)N[C@H](C(=O)N1CCC[C@H]1C(=O)N[C@@H](CC(=O)O)C(=O)N[C@H](C(=O)N[C@@H](CC(N)=O)C(=O)N1CCC[C@H]1C(=O)N[C@@H](C)C(=O)N[C@@H](Cc1c[nH]c2ccccc12)C(=O)N[C@@H](Cc1ccc(O)cc1)C(=O)N[C@H](C(=O)NCC(=O)N[C@@H](CCCNC(=N)N)C(=O)NCC(=O)N[C@H](C(=O)N[C@@H](CCCNC(=N)N)C(=O)N1CCC[C@H]1C(=O)N[C@H](C(=O)NCC(=O)N[C@@H](CCCNC(=N)N)C(=O)N[C@@H](Cc1ccc(O)cc1)C(N)=O)C(C)C)[C@@H](C)CC)[C@@H](C)O)[C@@H](C)CC)[C@@H](C)O)[C@@H](C)O [Analog 23] (H-SRAHQHS[Nle]ETRTPDINPAWYTGRGIRPVGRY-NH2) | 152 | 193 |

The remaining lines, values ahead:

| % of PrRP31, RC-4B/C rat pituitary cells [1] [%] | % of PrRP31, GPR10 human receptor transfected in CHO cells [2] [%] | Molecule |
| --- | --- | --- |
| 1072 | 185 | CCCCCCCCCCCCCC(=O)N[C@H](C(=O)N1CCC[C@H]1C(=O)N[C@@H](CC(=O)O)C(=O)N[C@H](C(=O)N[C@@H](CC(N)=O)C(=O)N1CCC[C@H]1C(=O)N[C@@H](C)C(=O)N[C@@H](Cc1c[nH]c2ccccc12)C(=O)N[C@@H](Cc1ccc(O)cc1)C(=O)N(C)[C@@H](C)C(=O)N[C@@H](CO)C(=O)N[C@@H](CCCNC(=N)N)C(=O)NCC(=O)N[C@H](C(=O)N[C@@H](CCCNC(=N)N)C(=O)N1CCC[C@H]1C(=O)N[C@H](C(=O)NCC(=O)N[C@@H](CCCNC(=N)N)C(=O)N[C@@H](Cc1ccccc1)C(N)=O)C(C)C)[C@@H](C)CC)[C@@H](C)CC)[C@@H](C)O [Analog 30] (Myristoyl-TPDINPAWY[NMeA]SRGIRPVGRF-NH2) |
| 189 | 66 | QHSMETRTPDINPAWYTGRGIRPVGRF-NH2 [Analog 37] |
| 68 | 46 | CCCCCCCCCCCCCC(=O)N[C@H](C(=O)N1CCC[C@H]1C(=O)N[C@@H](CC(=O)O)C(=O)N[C@H](C(=O)N[C@@H](CC(N)=O)C(=O)N1CCC[C@H]1C(=O)N[C@@H](C)C(=O)N[C@@H](Cc1c[nH]c2ccccc12)C(=O)N[C@@H](Cc1ccc(O)cc1)C(=O)N[C@H](C(=O)NCC(=O)N[C@@H](CCCNC(=N)N)C(=O)NCC(=O)N[C@@H](C)C(=O)N[C@@H](CCCNC(=N)N)C(=O)N1CCC[C@H]1C(=O)N[C@@H](Cc1ccccc1)C(=O)NCC(=O)N[C@@H](CCCNC(=N)N)C(=O)N[C@@H](Cc1ccccc1)C(N)=O)[C@@H](C)O)[C@@H](C)CC)[C@@H](C)O [Analog 32] (Myristoyl-TPDINPAWYTGRGARPFGRF-NH2) |
| 1096 | 71 | CCCCCCCCCCCCCC(=O)N[C@@H](CCCC)C(=O)N[C@@H](CCC(=O)O)C(=O)N[C@H](C(=O)N[C@@H](CCCNC(=N)N)C(=O)N[C@H](C(=O)N1CCC[C@H]1C(=O)N[C@@H](CC(=O)O)C(=O)N[C@H](C(=O)N[C@@H](CC(N)=O)C(=O)N1CCC[C@H]1C(=O)N[C@@H](C)C(=O)N[C@@H](Cc1c[nH]c2ccccc12)C(=O)N[C@@H](Cc1ccc(O)cc1)C(=O)N[C@H](C(=O)NCC(=O)N[C@@H](CCCNC(=N)N)C(=O)NCC(=O)N[C@H](C(=O)N[C@@H](CCCNC(=N)N)C(=O)N1CCC[C@H]1C(=O)N[C@H](C(=O)NCC(=O)N[C@@H](CCCNC(=N)N)C(=O)N[C@@H](Cc1ccccc1)C(N)=O)C(C)C)[C@@H](C)CC)[C@@H](C)O)[C@@H](C)CC)[C@@H](C)O)[C@@H](C)O [Analog 36] (Myristoyl-[Nle]ETRTPDINPAWYTGRGIRPVGRF-NH2) |
